# Source: PubChem BioAssay AID1949 (Southern Research Institute, 2009)
# Results filed as inconclusive are left out. Activity calls are given as the source filed them. No rule for the calls is given here.
# Test system: M. tuberculosis H37Rv growth inhibition
# Assay: Confirmatory growth inhibition assay against Mycobacterium tuberculosis H37Rv, potency (AID 1949);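 also: bacteria grown 7 days with compound before Alamar blue readout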
row,Structure (SMILES),IC50
1,CC1=CC(C)(C)Nc2ccc(OC(=O)c3cccnc3)cc21,2.88 µg/mL
2,CC(NC(=O)Nc1cccc(C(F)(F)F)c1)C1CC2CCC1C2 (stereo not given),< 0.1 µg/mL
3,CCn1c(/C=C/c2ccc([N+](=O)[O-])o2)nc2ccc(I)cc2c1=O,2.04 µg/mL
4,CCOC(=O)c1ccc(NC(=S)Nc2cc(Cl)c(Cl)cc2Cl)cc1,2.72 µg/mL
5,CN(C)CCC(=O)c1ccc(Br)cc1,0.61 µg/mL
6,CC(=O)c1c(C)n([O-])c2cc(Cl)c(Cl)cc2[n+]1=O,5.48 µg/mL
7,C=CCOc1c(Cl)cc(/C=C/[N+](=O)[O-])cc1OCC,23.4 µg/mL
8,Cc1ccc(C(=O)Nc2nc(C(C)(C)C)cs2)cc1[N+](=O)[O-],27.2 µg/mL
9,c1ccc(CCNc2nc(-c3ccccn3)cs2)cc1,0.4 µg/mL
10,O=S(=O)(Nc1cc(Br)c(O)c2ccccc12)c1ccc(F)cc1,3.06 µg/mL
11,CN1CCN(c2nc(N3CCCc4ccccc43)nc(N3CCCc4ccccc43)n2)CC1,5.33 µg/mL
12,CCOC(=O)COc1ccc2cc(-c3nc4ccccc4o3)c(=O)oc2c1,3.3 µg/mL
13,COc1cccc(OC)c1C(=O)Nc1ccc(Cl)c(-c2nc3ccccc3s2)c1,1.49 µg/mL
14,Cc1ccc(Cn2c(=N)n(CC(O)c3ccc(Cl)c(Cl)c3)c3ccccc32)cc1 (stereo not given),2.89 µg/mL
15,O=[N+]([O-])/C=C/c1cccn1-c1ccc(Cl)cc1,9.66 µg/mL
16,Cc1ccc(-c2nnc(SCC(=O)Nc3ccc([N+](=O)[O-])cc3)o2)cc1,> 50 µg/mL (inactive)
17,CCOC(=O)Cn1nnc(-c2ccc(OCc3ccccc3C)cc2)n1,< 0.1 µg/mL
18,CCCC(=O)N1CCN(c2ccc(NC(=O)c3ccc(-c4ccc(Cl)cc4)o3)cc2Cl)CC1,1.4 µg/mL
19,Cc1cc(Br)c2[nH]c(O)c(N=NC(=O)COc3ccccc3C)c2c1,18.7 µg/mL
20,CN1CCN(c2ccc(NC(=S)NC(=O)c3ccc(-c4cccc(Cl)c4)o3)cc2)CC1,0.38 µg/mL

row,Structure (SMILES),IC50
1,Cn1c(Sc2ccc([N+](=O)[O-])c3cccnc23)nnc1-c1ccccc1,0.8 µg/mL
2,COc1ccc(OCC(=O)NNC(=S)NC(=O)C(C)(C)C)cc1,0.13 µg/mL
3,CC(=O)c1cccc(Nc2nc(-c3ccccn3)cs2)c1,0.98 µg/mL
4,CC1=Nc2ccccc2N=C(N)C1c1ccc(Cl)cc1 (stereo not given),15 µg/mL
5,CCOc1ccc(N2C(=O)CC(Nc3ccccc3O)C2=O)cc1 (stereo not given),4.58 µg/mL
6,CC(C)(C)NCCCCOc1ccc(Cl)cc1C(C)(C)C,3.77 µg/mL
7,CC1CCN(CCNC(=S)Nc2ccc(F)cc2)CC1,1.54 µg/mL
8,CC(C)C1C(c2ccccc2)NC(c2ccccc2)CC1(O)C#Cc1ccccc1 (stereo not given),9.22 µg/mL
9,CC(C)CCNC(=O)C(=O)Nc1ccccc1Cl,0.84 µg/mL
10,Cc1ccc([N+](=O)[O-])cc1NC(=O)c1cc(Cl)ccc1O,29.7 µg/mL
11,Cc1cc([N+](=O)[O-])ccc1NC(=O)Nc1cccc(C(F)(F)F)c1,0.24 µg/mL
12,Cc1ccc(-c2nn(-c3cc(N4CCN(C)CC4)ccc3[N+](=O)[O-])c(=O)c3ccccc23)cc1,8.15 µg/mL
13,O=C(Nc1cccc(C(F)(F)F)c1)Nc1cc(F)c(F)cc1Cl,19.5 µg/mL
14,COC(=O)c1ccc(NC(=O)CSc2nnc(Cc3ccc(OC)cc3)o2)cc1,11.1 µg/mL
15,CCc1nc2ccccc2n1CC(O)COc1ccc(I)cc1 (stereo not given),1.97 µg/mL
16,CCC(C)c1ccc(O)c(NC(=S)NC(=O)c2cccnc2)c1 (stereo not given),< 0.1 µg/mL
17,CCOC(=O)COc1ccc2c(C)c(CC(=O)OC)c(=O)oc2c1C,7.36 µg/mL
18,CCCCNCCOCCOc1ccc(Cl)cc1C(C)(C)C,4.33 µg/mL
19,Cc1ccc(-c2csc3ncn(C(C)C(=O)OC4CCCCC4)c(=O)c23)cc1C (stereo not given),1.52 µg/mL
20,Cc1ccc(N2C(=O)CC(Sc3ccccc3C(=O)Nc3ccccc3)C2=O)cc1 (stereo not given),4.92 µg/mL

row,Structure (SMILES),IC50
1,O=C(Nc1ccc(OCC(F)(F)C(F)F)c(C(F)(F)F)c1)c1ccccc1O,5.26 µg/mL
2,O=c1c2c(-c3ccc(Cl)cc3)csc2nc2c3ccccc3c(NCCN3CCOCC3)nn12,11.2 µg/mL
3,COC(=O)Cc1c(C)c2ccc(OCC(=O)c3ccc(Cl)s3)cc2oc1=O,2.49 µg/mL
4,O=C1C(=O)N(Cc2ccccc2Cl)c2ccc(Cl)cc21,9.36 µg/mL
5,N#CC1=C(SCC(=O)Nc2ccccc2C(=O)c2ccccc2)NC(=O)CC1c1ccccc1F (stereo not given),3.1 µg/mL
6,Cc1ccc(C(=O)Nc2cc(C#N)c3[nH]c4ccccc4n3c2=O)cc1,6.55 µg/mL
7,O=S(=O)(Nc1cccc2cccnc12)c1ccc(Br)cc1,0.4 µg/mL
8,O=C(CCN1CCC(c2ccccc2)C1)c1ccco1 (stereo not given),> 50 µg/mL (inactive)
9,CC(=O)N/C(=N/c1nc(C)cc(C)n1)Nc1ccc(C)cc1C,> 50 µg/mL (inactive)
10,O=C(CSc1ccc(Cl)cc1)Nc1ccc(Cl)c(C(F)(F)F)c1,3.18 µg/mL
11,CCCCOc1ccc(S(=O)(=O)Nc2ccc(C)c(Cl)c2)cc1,5.13 µg/mL
12,Cc1ccc(NC(=S)c2ccccn2)cc1,0.99 µg/mL
13,O=C(CSc1ccc(Br)cc1)Nc1ccccc1F,1.6 µg/mL
14,CN(C)C(=S)Nc1nc2ccccc2s1,< 0.1 µg/mL
15,COC(=O)c1ccc2c(=O)n(-c3ccccc3)c(SCc3ccccc3)nc2c1,22.6 µg/mL
16,Cc1ccc(SCC(=O)Nc2cccc(C)c2)cc1,10.9 µg/mL
17,Fc1ccccc1C1NC(=S)NC2=C1CCc1ccccc12 (stereo not given),9.36 µg/mL
18,COc1ccc(Br)cc1C(=O)Nc1ccc(N2CCN(C)CC2)cc1,12.6 µg/mL
19,CCOC(=O)c1c(-c2cccs2)csc1NC(=O)c1cc2ccccc2oc1=O,4.76 µg/mL
20,O=C(CC12CC3CC(CC(C3)C1)C2)Nc1ccc(F)c(Cl)c1,3.02 µg/mL
